Measured values: patent US8168860B2, “Compositions and methods for the modification of physiological responses in plants” (Rohm and Haas Company, priority 2007, dated 2012)
“And” between values parts separate entries of the source, which are not always exact repeats. Equal entries are not always repeated.

Key:
Format in all cases: in vivo
[1] = system: transformed tobacco plants; test: Triple response assay, shoot length of transformed tobacco shoots in dark with ethylene; conditions: for Shoot Length Avg (cm) / Shoot Length (cm): induced, 10 μM inducer, ethylene about 10 ppm, 18 days; for Shoot Length (cm): single shoots
Method: A triple response assay as described in Guzman and Ecker 1990 The Plant Cell, 2:513-523, modified as provided herein, was conducted to determine the effect of the modulation of ethylene sensitivity in the transformed tobacco plants of Example 2. From each transformed plant designated 185-1, 184-3, 185-8, 185-11, 187-7, 187-13, 187-17 and 187-21, two leaves from each plant were cut into small pieces. These pieces were plated onto MSS plates containing […] kanamycin, with or without 10 μM inducer, i.e., 3,5 Dimethyl-benzoic acid N-(1-ethyl-2,2-dimethyl-propyl)-N′-(3S-hydroxymethyl-5-methyl-2,3-dihydro-benzo[1,4]dioxine-6-carbonyl)hydrazide. MSS plates without antibiotic or inducer were used as controls.
These plated plant tissues were grown at 25° C. with light in growth chambers to induce shoots. Shoots were transferred into fresh plates for about two weeks for continued growth at 25° C. Each callus was then transferred to new culture dishes with or without inducer. Each callus with shoots starting to initiate was split into several plates with approximately equal amounts of callus per plate.
The plates were then separated into groups for the following treatment protocols which lasted for 18 days
Shoot length was measured, and the relative assessment of the efficacy of the transgenic plants prepared according to the Examples based on raw data for shoot length is reported in Table I for conditions (a) through (d) above. Typically, wild-type shoots exposed to ethylene in the dark display stunted growth. Ethylene insensitive plants under these conditions should show elongated growth. […] Shoots grown in the light produced uninterpretable data.

[2] = system: tomato seedlings (WT, p1002-18, p1003-16); test: Tomato seedling growth on 20 μM inducer and various levels of ACC; conditions: 20 μM inducer; for Hypocotyl (mm) / Root (mm): 14 day old seedlings
[3] = system: transformed tomato plants; test: Triple response assay, transformed tomato plants with ethylene; conditions: transgenic tomato with etr1-1 cassettes, 20 μM inducer, dark, 4-8 days
Method: A triple response assay (Guzman and Ecker, 1990, cited above, modified as described below) was used to determine the modulation of ethylene sensitivity in the transformed tomato plants. Tomato seed was surface-sterilized and imbibed in 20 μM inducer in the dark for 4 days at 4° C. The seed was plated on 0.5× MS with 1% sucrose and 20 μM inducer and for mutant receptors treated with 10 ppm ethylene or 1 ppm ethylene for wild-type receptors and grown in the dark for 4-8 days at 21° C. The response to ethylene was scored on the last day.

[4] = system: tomato seedlings p1002-18-3; test: Transient induction: tomato seedlings on 20 μM ACC, inducer removed after 2-14 days; conditions: for Hypocotyl (mm) / Root (mm) / Hypocotyl Percent (%) / Root Percent (%): p1002-18-3 tomato; for Hypocotyl (mm) / Root (mm): dark, 14 day old seedlings
Method: After 14 days growth in the dark, hypocotyls and roots were measured to assess ethylene insensitivity. Ethylene insensitive seedlings would be expected to have longer hypocotyls and roots. […] Thus, root and hypocotyl growth of the reversed seedlings should be intermediate between the sensitive and insensitive seedlings.

[5] = system: tomato seedlings (WT, p1002 and p1003 lines); test: Tomato seedling growth in the dark on 20 μM ACC with or without inducer; conditions: for Hypocotyls (mm) / Root (mm): 20 μM inducer, 20 μM ACC, 14 day old seedlings, dark
Method: Seed from three homozygous independent p1002 and p1003 lines were germinated in the dark on 0.5× MS medium+1% sucrose containing 20 μM ACC, the precursor to ethylene. Germination on ACC inhibits tomato seedling growth. Seed from the same lines also was germinated in the presence of 20 μM ACC plus 20 μM inducer.

[6] = 10 μM inducer, 2 days with inducer, 12 days without, 20 μM ACC
[7] = 10 μM inducer, 2 days with inducer, 12 days without, relative to 14 days with inducer
[8] = 10 μM inducer, 4 days with inducer, 10 days without, 20 μM ACC
[9] = 10 μM inducer, 4 days with inducer, 10 days without, relative to 14 days with inducer
[10] = 10 μM inducer, 6 days with inducer, 8 days without, 20 μM ACC
[11] = 10 μM inducer, 6 days with inducer, 8 days without, relative to 14 days with inducer
[12] = 10 μM inducer, 8 days with inducer, 6 days without, 20 μM ACC
[13] = 10 μM inducer, 8 days with inducer, 6 days without, relative to 14 days with inducer
[14] = 10 μM inducer, 14 days with inducer, 0 days without (reference)
[15] = 10 μM inducer, 14 days with inducer, 0 days without, 20 μM ACC
[16] = tomato line p1002-4 (first line so labelled, r8)
[17] = tomato line p1002-4 (second line so labelled, r13)

## CCC(N(NC(=O)c1ccc2c(c1C)O[C@@H](CO)CO2)C(=O)c1cc(C)cc(C)c1)C(C)(C)C (stereo partly drawn) [inducer, 3,5 Dimethyl-benzoic acid N-(1-ethyl-2,2-dimethyl-propyl)-N′-(3S-hydroxymethyl-5-methyl-2,3-dihydro-benzo[1,4]dioxine-6-carbonyl)hydrazide]
[1]; tobacco plant 185-1 (VGE)
  Shoot Length Avg (cm): 2.8 cm
[1]; tobacco plant 185-8 (VGE)
  Shoot Length Avg (cm): 4.6 cm
  Shoot Length (cm): 5.5 cm and 5.0 cm and 4.0 cm and 4.4 cm and 4.3 cm
[1]; tobacco plant 185-11 (VGE)
  Shoot Length Avg (cm): 4.0 cm
  Shoot Length (cm): 4.0 cm and 4.5 cm and 3.0 cm
[1]; tobacco plant 187-7 (GVE)
  Shoot Length Avg (cm): 3.0 cm
  Shoot Length (cm): 3.0 cm
[1]; tobacco plant 187-13 (GVE)
  Shoot Length Avg (cm): 3.9 cm
  Shoot Length (cm): 4.0 cm and 3.5 cm and 5.0 cm and 3.0 cm
[1]; tobacco plant 187-17 (GVE)
  Shoot Length Avg (cm): 4.3 cm
  Shoot Length (cm): 5.6 cm and 3.5 cm
[1]; tobacco plant 187-21 (GVE)
  Shoot Length Avg (cm): 3.4 cm
  Shoot Length (cm): 4.0 cm and 3.5 cm and 3.0 cm and 2.5 cm
[1]; transgenic tobacco with etr1-1 cassettes, presence of inducer, ethylene
  ethylene insensitivity, based on increased shoot length compared to non-induced transgenic plants: demonstrated ethylene insensitivity
[2]; WT tomato, 5 μM Ag
  Hypocotyl (mm): 41.4 ± 8.20 mm
  Root (mm): 22.3 ± 5.66 mm
[2]; WT tomato, ACC 0 μM
  Hypocotyl (mm): 36.4 ± 9.44 mm
  Root (mm): 28.8 ± 6.26 mm
[2]; WT tomato, ACC 1 μM
  Hypocotyl (mm): 25.9 ± 12.7 mm
  Root (mm): 14.4 ± 9.42 mm
[2]; WT tomato, ACC 2.5 μM
  Hypocotyl (mm): 11.3 ± 6.25 mm
  Root (mm): 12.3 ± 9.41 mm
[2]; WT tomato, ACC 5 μM
  Hypocotyl (mm): 8.50 ± 4.35 mm
  Root (mm): 10.4 ± 8.73 mm
[2]; WT tomato, ACC 10 μM
  Hypocotyl (mm): 7.71 ± 1.20 mm
  Root (mm): 13.1 ± 10.8 mm
[2]; WT tomato, ACC 20 μM
  Hypocotyl (mm): 3.21 ± 1.19 mm
  Root (mm): 11.2 ± 9.40 mm
[2]; p1002-18 tomato, 5 μM Ag
  Hypocotyl (mm): 38.2 ± 6.85 mm
  Root (mm): 31.6 ± 5.68 mm
[2]; p1002-18 tomato, ACC 0 μM
  Hypocotyl (mm): 40.7 ± 9.50 mm
  Root (mm): 30.9 ± 7.14 mm
[2]; p1002-18 tomato, ACC 1 μM
  Hypocotyl (mm): 28.4 ± 18.0 mm
  Root (mm): 24.7 ± 7.53 mm
[2]; p1002-18 tomato, ACC 2.5 μM
  Hypocotyl (mm): 29.4 ± 15.0 mm
  Root (mm): 25.8 ± 8.50 mm
[2]; p1002-18 tomato, ACC 5 μM
  Hypocotyl (mm): 27.3 ± 9.03 mm
  Root (mm): 24.0 ± 7.77 mm
[2]; p1002-18 tomato, ACC 10 μM
  Hypocotyl (mm): 28.0 ± 14.1 mm
  Root (mm): 24.8 ± 6.03 mm
[2]; p1002-18 tomato, ACC 20 μM
  Hypocotyl (mm): 26.5 ± 15.1 mm
  Root (mm): 24.1 ± 3.98 mm
[2]; p1003-16 tomato, 5 μM Ag
  Hypocotyl (mm): 36.3 ± 9.08 mm
  Root (mm): 23.8 ± 4.92 mm
[2]; p1003-16 tomato, ACC 0 μM
  Hypocotyl (mm): 39.8 ± 17.1 mm
  Root (mm): 18.7 ± 3.94 mm
[2]; p1003-16 tomato, ACC 1 μM
  Hypocotyl (mm): 39.3 ± 11.0 mm
  Root (mm): 18.2 ± 716 mm
[2]; p1003-16 tomato, ACC 2.5 μM
  Hypocotyl (mm): 38.9 ± 18.2 mm
  Root (mm): 12.9 ± 8.61 mm
[2]; p1003-16 tomato, ACC 5 μM
  Hypocotyl (mm): 33.0 ± 15.2 mm
  Root (mm): 12.9 ± 9.36 mm
[2]; p1003-16 tomato, ACC 10 μM
  Hypocotyl (mm): 29.7 ± 18.8 mm
  Root (mm): 12.7 ± 12.1 mm
[2]; p1003-16 tomato, ACC 20 μM
  Hypocotyl (mm): 24.3 ± 15.2 mm
  Root (mm): 13.0 ± 7.92 mm
[2]; tomato p1002 and p1003 line, ACC 1.0-20 μM
  induction of ethylene insensitivity over ACC concentrations: induction of ethylene insensitivity occurred across the range of ACC concentrations tested
[3]
  ethylene insensitivity, based on increased shoot length and/or altered root growth compared to non-induced transgenic plants: demonstrated ethylene insensitivity
[4]; [6]
  Hypocotyl (mm): 16.9 ± 4.30 mm
  Root (mm): 26.2 ± 15.3 mm
[4]; [7]
  Hypocotyl Percent (%): 63.8%
  Root Percent (%): 69.9%
[4]; [8]
  Hypocotyl (mm): 19.5 ± 7.52 mm
  Root (mm): 28.7 ± 14.7 mm
[4]; [9]
  Hypocotyl Percent (%): 73.6%
  Root Percent (%): 76.5%
[4]; [10]
  Hypocotyl (mm): 26.8 ± 6.27 mm
  Root (mm): 29.8 ± 9.61 mm
[4]; [11]
  Hypocotyl Percent (%): 101%
  Root Percent (%): 79.5%
[4]; [12]
  Hypocotyl (mm): 26.0 ± 10.3 mm
  Root (mm): 38.3 ± 9.15 mm
[4]; [13]
  Hypocotyl Percent (%): 98.1%
  Root Percent (%): 102%
[4]; [14]
  Hypocotyl Percent (%): 100%
  Root Percent (%): 100%
[4]; [15]
  Hypocotyl (mm): 26.5 ± 7.51 mm
  Root (mm): 37.5 ± 13.2 mm
[4]; tomato p1002 line, 10 μM inducer, 20 μM ACC
  duration of induction sufficient for a full state of ethylene insensitivity: Six days was sufficient to induce a full state of ethylene insensitivity
[4]; tomato p1002 line, induced for 2 or 4 days then removed from inducer, compared to non-induced control
  reversal after removal of inducer: showed return to a state of ethylene sensitivity
[5]; WT tomato
  Hypocotyls (mm): 11.2 ± 3.18 mm
  Root (mm): 11.2 ± 3.18 mm
[5]; [16]
  Hypocotyls (mm): 32.7 ± 16.8 mm
  Root (mm): 42.2 ± 16.3 mm
[5]; [17]
  Hypocotyls (mm): 33.9 ± 6.02 mm
  Root (mm): 29.8 ± 21.4 mm
[5]; tomato line p1002-7
  Hypocotyls (mm): 36.2 ± 8.42 mm
  Root (mm): 44.5 ± 7.71 mm
[5]; tomato line p1002-9
  Hypocotyls (mm): 29.9 ± 7.85 mm
  Root (mm): 35.0 ± 16.0 mm
[5]; tomato line p1002-16
  Hypocotyls (mm): 39.6 ± 9.62 mm
  Root (mm): 19.5 ± 16.3 mm
[5]; tomato line p1002-18
  Hypocotyls (mm): 35.4 ± 8.82 mm
  Root (mm): 35.4 ± 8.82 mm
[5]; tomato p1002 and p1003 lines, growth on ACC in the presence of inducer
  ethylene insensitivity (elongated hypocotyls with no apical hook): resulted in a state of ethylene insensitivity
